# Where two headings read alike, the source gives them in different places.
# Tests used:
# [1] = system: ECM6003 rmtB; experiment: microbe, parasite or virus in culture; type: cell-based, Escherichia coli; settings: for MIC: Escherichia coli, read-out: Compound MIC on Bacterial Strains: ECM6003 rmtB
# Experimental: (§1) To compare microbiological activity of the test compounds, minimum inhibitory concentrations (MIC.s) were determined. Antibiotic MICs were obtained using the broth microdilution method according to Clinical and Laboratory Standards Institute (CLSI) approved guidelines (Methods for dilution antimicrobial susceptibility tests for bacteria that grow aerobically; approved standard—7th ed. CLSI document M7-A7. Clinical and Laboratory Standards Institute, Wayne, Pa., incorporated herein by reference in its entirety). Antibiotics were dissolved as specified by CLSI (Performance standards for antimicrobial susceptibility testing; Seventeenth informational supplement. CLSI document M100-S17. Clinical and Laboratory Standards Institute, Wayne, Pa., incorporated herein by reference in its entirety), and were serially diluted 2-fold in cation adjusted Mueller Hinton Broth (CaMHB) at 2× concentration. Bacterial inoculums were prepared in CaMHB by suspension of a colony from an agar plate that was prepared the previous day to obtain a final concentration of 5×10^5CFU/ml. The plates were incubated for 18 hours at 35° C. […] MIC.s were determined by reading the turbidity of plate wells using a SpectraMax Plus384 plate reader (Molecular Devices, Sunnyvale, Calif., USA) at 600 nm and were confirmed by visual inspection.
# (§2) Activity of the test compounds was determined using QC strains and strains with known aminoglycoside resistance mechanisms (TABLE 3). This specific panel contained strains expressing enzymes that covalently modify N2″, N3 and N3′ positions.
# The panel also contained a strain expressing ribosomal RNA methylase, RmtB.
# [2] = system: ECM6006 aph(3′)-III; experiment: microbe, parasite or virus in culture; type: cell-based, Escherichia coli; settings: for MIC: Escherichia coli, read-out: Compound MIC on Bacterial Strains: ECM6006 aph(3′)-III
# Experimental: as §1, §2
# [3] = system: ECM6009 aac(3)-II; experiment: microbe, parasite or virus in culture; type: cell-based, Escherichia coli; settings: for MIC: Escherichia coli, read-out: Compound MIC on Bacterial Strains: ECM6009 aac(3)-II
# Experimental: as §1, §2
# [4] = system: ECM6010 ant(2″)-I; experiment: microbe, parasite or virus in culture; type: cell-based, Escherichia coli; settings: for MIC: Escherichia coli, read-out: Compound MIC on Bacterial Strains: ECM6010 ant(2″)-I
# Experimental: as §1, §2
# [5] = system: ECM6011 aph(3′)-I; experiment: microbe, parasite or virus in culture; type: cell-based, Escherichia coli; settings: for MIC: Escherichia coli, read-out: Compound MIC on Bacterial Strains: ECM6011 aph(3′)-I
# Experimental: as §1, §2
# [6] = system: EC1002 aph(3′)-IV; experiment: organism not typed; type: cell-based; settings: for MIC: read-out: Compound MIC on Bacterial Strains: EC1002 aph(3′)-IV
# Experimental: as §1, §2
# [7] = system: EC1001 acc(6′)-Ib; experiment: microbe, parasite or virus in culture; type: cell-based, Escherichia coli; settings: Table 4; for MIC: Escherichia coli, read-out: Compound MIC on Bacterial Strains: Escherichia coli EC1001 acc(6′)-Ib
# Experimental: as §1
# [8] = system: ECM6007 aac(6′) + aph(2″); experiment: microbe, parasite or virus in culture; type: cell-based, Escherichia coli; settings: Table 4; for MIC: Escherichia coli, 18 h, read-out: Compound MIC on Bacterial Strains: Escherichia coli ECM6007 aac(6′) + aph(2″)
# Experimental: as §1
# [9] = system: ACM1005 ATCC 19004; experiment: MIC, broth microdilution; type: cell-based, Acinetobacter baumannii; settings: Table 4; for MIC: Acinetobacter baumannii, ATCC19004, read-out: Compound MIC on Bacterial Strains: Acinetobacter baumannii ACM1005 ATCC 19004
# Experimental: as §1
# [10] = system: ACM1006 acc(6′)-Ib; experiment: microbe, parasite or virus in culture; type: cell-based, Acinetobacter baumannii; settings: Table 4; for MIC: Acinetobacter baumannii, read-out: Compound MIC on Bacterial Strains: Acinetobacter baumannii ACM1006 acc(6′)-Ib
# Experimental: as §1
# [11] = system: PAM3072 aac(6′)-II; experiment: microbe, parasite or virus in culture; type: cell-based, Pseudomonas aeruginosa; settings: Pseudomonas aeruginosa, Table 5; read-out: Compound MIC on Bacterial Strains: Pseudomonas aeruginosa PAM3072 aac(6′)-II
# Experimental: as §1
# [12] = system: PAM3073 aac(6′)-I; experiment: microbe, parasite or virus in culture; type: cell-based, Pseudomonas aeruginosa; settings: Pseudomonas aeruginosa, Table 5; read-out: Compound MIC on Bacterial Strains: Pseudomonas aeruginosa PAM3073 aac(6′)-I
# Experimental: as §1
# [13] = system: Escherichia coli (ATCC 25922); experiment: MIC, broth microdilution; settings: for MIC: Escherichia coli
# [14] = system: Staphylococcus aureus (ATCC 29213); experiment: MIC, broth microdilution; settings: Staphylococcus aureus
# [15] = system: Klebsiella pneumonia (ATCC 43816); experiment: MIC, broth microdilution; settings: Klebsiella pneumoniae, ATCC43816, read-out: Compound MIC on Bacterial Strains: K. pneumonia ATCC 43816
# [16] = system: Pseudomonas aeruginosa (ATCC 27853); experiment: MIC, broth microdilution; settings: Pseudomonas aeruginosa
# [17] = system: Acinetobacter baumannii (ATCC 19606); experiment: MIC, broth microdilution; settings: Acinetobacter baumannii, ATCC19606, read-out: Compound MIC on Bacterial Strains: A. baumannii ATCC 19606
# [18] = ATCC25922, read-out: Compound MIC on Bacterial Strains: E. coli ATCC 25922
# [19] = ATCC25922, read-out: Compound MIC on Bacterial Strains: ECM6000 ATCC 25922
# [20] = ATCC25922, read-out: Compound MIC on Bacterial Strains: Escherichia coli ECM6000 ATCC 25922
# [21] = ATCC29213, read-out: Compound MIC on Bacterial Strains: S. aureus ATCC 29213, QC strain, Table 2
# [22] = ATCC29213, read-out: Compound MIC on Bacterial Strains: Staphylococcus aureus SAM1000 ATCC 29213, Table 5
# [23] = ATCC27853, read-out: Compound MIC on Bacterial Strains: P. aeruginosa ATCC 27853
# [24] = ATCC27853, read-out: Compound MIC on Bacterial Strains: Pseudomonas aeruginosa PAM3034 ATCC 27853
Compound,MIC [2] [µg/mL],MIC [3] [µg/mL],MIC [4] [µg/mL],MIC [5] [µg/mL],MIC ([1]; Table 3) [µg/mL],MIC [6] [µg/mL],MIC [7] [µg/mL],MIC [8] [µg/mL],MIC [9] [µg/mL],MIC [11] [µg/mL],MIC [12] [µg/mL],"MIC [13, 18] [µg/mL]","MIC [13, 19] [µg/mL]","MIC [13, 20] [µg/mL]","MIC [14, 21] [µg/mL]","MIC [14, 22] [µg/mL]",MIC [15] [µg/mL],"MIC [16, 23] [µg/mL]","MIC [16, 24] [µg/mL]",MIC [17] [µg/mL],other results
NC[C@@H]1CCC(N)[C@@H](OC2C(O)C(O[C@H]3OC(CO)C(O)[C@H](N)C3O)[C@H](NC(=O)C3(O)CNNC3)C[C@@H]2N)O1 (stereo partly shown) [Compound 28],,,,,,,,,,,,,,,,,,,,,fold increased resistance conferred by RmtB ([1]; strain expressing ribosomal RNA methylase RmtB): 8 fold
"CN[C@@H]1[C@@H](O)[C@@H](O[C@@H]2[C@@H](O)[C@H](O[C@H]3O[C@H](CNCCO)CC[C@H]3N)[C@@H](N)C[C@H]2NC(=O)[C@@H](O)CCCN)OC[C@]1(C)O [Compound 40, (S)-5-amino-N-((1R,2S,3S,4R,5S)-5-amino-4-((2R,3R,6S)-3-amino-6-((2-hydroxyethylamino)methyl)tetrahydro-2H-pyran-2-yloxy)-2-((2R,3R,4R,5R)-3,5-dihydroxy-5-methyl-4-(methylamino)tetrahydro-2H-pyran-2-yloxy)-3-hydroxycyclohexyl)-2-hydroxypentanamide]",1 to 8,< 1,< 1,< 1,> 8,1 to 8,1 to 8,< 1,1 to 8,> 8,1 to 8,1 to 8,1 to 8,1 to 8,1 to 8,1 to 8,< 1,> 8,> 8,> 8,MIC [10]: 1 to 8 µg/mL
"CN[C@@H]1[C@@H](O)[C@@H](O[C@@H]2[C@@H](O)[C@H](O[C@H]3O[C@H](CNCCO)CC[C@H]3N)[C@@H](N)C[C@H]2NC(=O)[C@@H](O)CNN)OC[C@]1(C)O [Compound 41, (S)—N-((1R,2S,3S,4R,5S)-5-amino-4-((2R,3R,6S)-3-amino-6-((2-hydroxyethylamino)methyl)tetrahydro-2H-pyran-2-yloxy)-2-((2R,3R,4R,5R)-3,5-dihydroxy-5-methyl-4-(methylamino)tetrahydro-2H-pyran-2-yloxy)-3-hydroxycyclohexyl)-3-hydrazinyl-2-hydroxypropanamide]",> 8,> 8,1 to 8,1 to 8,> 8,1 to 8,> 8,1 to 8,,> 8,> 8,1 to 8,1 to 8,1 to 8,1 to 8,1 to 8,1 to 8,> 8,> 8,> 8,
"CN[C@@H]1[C@@H](O)[C@@H](O[C@@H]2[C@@H](O)[C@H](O[C@H]3O[C@H](CN)CC[C@H]3N)[C@@H](N)C[C@H]2NC(=O)[C@@H](O)[C@H](N)CN)OC[C@]1(C)O [Compound 3, (2S,3R)-3,4-diamino-N-((1R,2S,3S,4R,5S)-5-amino-4-((2R,3R,6S)-3-amino-6-(aminomethyl)tetrahydro-2H-pyran-2-yloxy)-2-((2R,3R,4R,5R)-3,5-dihydroxy-5-methyl-4-(methylamino)tetrahydro-2H-pyran-2-yloxy)-3-hydroxycyclohexyl)-2-hydroxybutanamide]",,,,,,,> 8,< 1,1 to 8,,,< 1,,1 to 8,< 1,,< 1,< 1,,> 8,MIC [10]: 1 to 8 µg/mL
"CN[C@@H]1[C@@H](O)[C@@H](O[C@@H]2[C@@H](O)[C@H](O[C@H]3O[C@H](CN)CC[C@H]3N)[C@@H](N)C[C@H]2NC(=O)[C@@H](O)[C@H](N)CO)OC[C@]1(C)O [Compound 20, (2S,3R)-3-amino-N-((1R,2S,3S,4R,5S)-5-amino-4-((2R,3R,6S)-3-amino-6-(aminomethyl)tetrahydro-2H-pyran-2-yloxy)-2-((2R,3R,4R,5R)-3,5-dihydroxy-5-methyl-4-(methylamino)tetrahydro-2H-pyran-2-yloxy)-3-hydroxycyclohexyl)-2,4-dihydroxybutanamide]",1 to 8,< 1,1 to 8,1 to 8,> 8,1 to 8,,,,> 8,> 8,1 to 8,1 to 8,,1 to 8,1 to 8,< 1,1 to 8,1 to 8,> 8,
"CNC[C@@H]1CC[C@@H](N)[C@@H](O[C@H]2[C@H](O)[C@@H](O[C@H]3OC[C@](C)(O)[C@H](NC)[C@H]3O)[C@H](N)C[C@@H]2N)O1 [Micronomicin, reference compound]",,,,,,,,,,,,,,,,,,,,,Compound MIC on Bacterial Strains: ECM6006 aph(3′)-III [2]: B (key: A: MIC of 1 μg/ml or less; B: MIC of greater than 1 μg/ml to 8 μg/ml; MIC of greater than 8 μg/ml); Compound MIC on Bacterial Strains: ECM6009 aac(3)-II [3]: C (key: A: MIC of 1 μg/ml or less; B: MIC of greater than 1 μg/ml to 8 μg/ml; MIC of greater than 8 μg/ml); Compound MIC on Bacterial Strains: ECM6010 ant(2″)-I [4]: C (key: A: MIC of 1 μg/ml or less; B: MIC of greater than 1 μg/ml to 8 μg/ml; MIC of greater than 8 μg/ml); Compound MIC on Bacterial Strains: ECM6011 aph(3′)-I [5]: B (key: A: MIC of 1 μg/ml or less; B: MIC of greater than 1 μg/ml to 8 μg/ml; MIC of greater than 8 μg/ml); Compound MIC on Bacterial Strains: ECM6003 rmtB ([1]; Table 3): C (MIC of greater than 8 μg/ml); Compound MIC on Bacterial Strains: EC1002 aph(3′)-IV [6]: A (key: A: MIC of 1 μg/ml or less; B: MIC of greater than 1 μg/ml to 8 μg/ml; MIC of greater than 8 μg/ml); Compound MIC on Bacterial Strains: Escherichia coli EC1001 acc(6′)-Ib [7]: C (MIC of greater than 8 μg/ml); Compound MIC on Bacterial Strains: Escherichia coli ECM6007 aac(6′) + aph(2″) [8]: B (MIC of greater than 1 μg/ml to 8 μg/ml); Compound MIC on Bacterial Strains: Acinetobacter baumannii ACM1005 ATCC 19004 [9]: A (MIC of 1 μg/ml or less); Compound MIC on Bacterial Strains: Acinetobacter baumannii ACM1006 acc(6′)-Ib [10]: C (MIC of greater than 8 μg/ml); Compound MIC on Bacterial Strains: ECM6000 ATCC 25922 ([13]; Table 3): A (MIC of 1 μg/ml or less); Compound MIC on Bacterial Strains: Escherichia coli ECM6000 ATCC 25922 ([13]; Table 4): A (MIC of 1 μg/ml or less)

# Source: patent US8906868B2, “Aminoglycoside derivatives” (Rempex Pharmaceuticals, Inc., priority 2010, dated 2014)
